The values below come from patent US8318667B2, “Glucagon receptor antagonist compounds, compositions containing such compounds and methods of use” (Merck Sharp & Dohme Corp., priority 2009, dated 2012).

pIC50: −log10 of the molar value.

This test has as its target T1, human glucagon receptor (Homo sapiens, UniProt P47871).
T1 construct: expressed in transfected cells; cell membranes used
Briefly: Glucagon Receptor Binding Assay (125I-glucagon, SPA, CHO cell membranes). As to conditions: for pIC50: inhibition of 125I-glucagon binding to membranes of CHO cells expressing cloned human glucagon receptor, value for the most active stereoisomer prepared; for relative potency as glucagon receptor antagonist among the stereoisomers prepared: comparison of stereoisomers of the same example, assay not stated. The method, then: A stable CHO (Chinese hamster ovary) cell line expressing cloned human glucagon receptor was maintained as described (Chicchi, et. al. J Biol Chem 272, 7765-9(1997); Cascieri, et. al. J Biol Chem 274, 8694-7(1999)). To determine antagonistic binding affinity of compounds, 0.001-0.003 mg of cell membranes from these cells were pre-incubated with 0.100 mg WGA-coated PVT SPA beads (Amersham) for 20 minutes at room temperature in […] of a buffer containing 50 mM Tris-HCl (pH 7.5), 5 mM MgCl2, 2 mM EDTA, 0.1% BSA and 3% glycerol in Costar 384 well plates with clear bottoms (#3706). Next, 25 μL of ^125I-Glucagon (New England Nuclear, MA) (1×10^−14 mol per well) and either 1 μL solutions of test compounds or 0.001 mM unlabeled glucagon or DMSO were added and mixed. After 4-12 hours incubation at room temperature, the radioactivity bound to the cell membranes was determined in a radioactive emission detection counter (Wallac-Microbeta). Data were analyzed using the Data Analyzer software program of Merck & Co., Inc. The IC50 values were calculated using non-linear regression analysis assuming single-site competition.

T1 sequence (P47871 26-477): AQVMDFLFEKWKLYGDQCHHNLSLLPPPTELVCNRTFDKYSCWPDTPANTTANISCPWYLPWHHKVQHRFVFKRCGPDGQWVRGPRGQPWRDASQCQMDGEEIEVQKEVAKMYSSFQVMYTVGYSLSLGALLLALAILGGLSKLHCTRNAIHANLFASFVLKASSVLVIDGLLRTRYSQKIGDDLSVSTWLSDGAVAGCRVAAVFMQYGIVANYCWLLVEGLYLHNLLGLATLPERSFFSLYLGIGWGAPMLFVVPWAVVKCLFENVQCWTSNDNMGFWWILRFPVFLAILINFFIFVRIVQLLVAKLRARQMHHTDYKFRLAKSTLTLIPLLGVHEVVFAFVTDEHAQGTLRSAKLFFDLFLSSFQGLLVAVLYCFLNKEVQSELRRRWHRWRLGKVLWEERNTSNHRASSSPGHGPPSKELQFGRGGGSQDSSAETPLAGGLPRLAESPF

Usually pIC50 stands for −log10 of the IC50, conventionally taken in molar units. Low values mean a high IC50, high ones a low IC50. `CCCC(c1ccc(C(=O)NCCC(=O)O)cc1)C(c1ccc(Cl)cc1)c1n[nH]c2c(F)cc(-c3cccc(F)c3)cc12` (racemic) [Example 24] had a pIC50 of 8.77.
Consider `CCCC(c1ccc(C(=O)NCCC(=O)O)cc1)C(c1ccc(Cl)cc1)c1n[nH]c2c(C)cc(Cl)cc12` (single isomer, unassigned) [Example 1], for which the “relative potency as glucagon receptor antagonist among the stereoisomers prepared” value (shortened to “relative potency”) is “most potent glucagon antagonist of the four stereoisomeric compounds” and the pIC50 was 9.22.
Take `CCCC(c1ccc(C(=O)NCCC(=O)O)cc1)C(c1ccc(Cl)cc1)c1nn(C)c2c(Cl)cc(C(F)(F)F)cc12` (single isomer, unassigned) [Example 2, N-(4-{1-[[7-Chloro-1-Methyl-5-(Trifluoromethyl)-1H-Indazol-3-Yl](4-Chlorophenyl)Methyl]Butyl}Benzoyl)-β-Alanine]: the pIC50 is 9.15.
Regarding `CCCC(c1ccc(C(=O)NCCC(=O)O)cc1)C(c1ccc(Cl)cc1)c1c2cc(C(F)(F)F)cc(Cl)c2nn1-c1ccccc1` (single isomer, unassigned) [Example 3, N-[4-(1-{(4-Chlorophenyl)[7-Chloro-2-Phenyl-5-(Trifluoromethyl)-2H-Indazol-3-Yl]Methyl}Butyl)Benzoyl]-β-Alanine], the pIC50 is 7.43.
Consider `CCCC(c1ccc(C(=O)NCCC(=O)O)cc1)C(c1ccc(Cl)cc1)c1c2cc(C(F)(F)F)cc(Cl)c2nn1C` (single isomer, unassigned) [Example 4, N-[4-(1-{(4-Chlorophenyl)[7-Chloro-2-Methyl-5-(Trifluoromethyl)-2H-Indazol-3-Yl]Methyl}Butyl)Benzoyl]-β-Alanine], for which the “relative potency” value is “most potent glucagon receptor antagonist of the four stereoisomeric compounds” and the pIC50 is 8.59.
In the case of `CCCC(c1ccc(C(=O)NCCC(=O)O)cc1)C(c1ccc(Cl)cc1)c1n[nH]c2ccc(C(F)(F)F)cc12` (single isomer, unassigned) [Example 5, N-[4-(1-{(4-CHLOROPHENYL)[5-(TRIFLUOROMETHYL)-1H- INDAZOL-3-YL]METHYL}BUTYL)BENZOYL]-β-ALANINE], the pIC50 is 9.10.
`CCCC(c1ccc(C(=O)NCCC(=O)O)cc1)C(c1ccc(Cl)cc1)c1n[nH]c2c(Cl)cc(C(F)(F)F)cc12` (single isomer, unassigned) [Example 6, N-[4-(1-{(4-CHLOROPHENYL)[7-CHLORO-5-(TRIFLUOROMETHYL)-1H-INDAZOL- 3-YL]METHYL}BUTYL)BENZOYL]-β-ALANINE]: the pIC50 is 9.70.
`CCCC(c1ccc(C(=O)NCCC(=O)O)cc1)C(c1ccc(Cl)cc1)c1n[nH]c2c(Cl)cc(Cl)cc12` (single isomer, unassigned) [Example 8, N-[4-(1-{(4-CHLOROPHENYL)[5,7-DICHLORO-1H-INDAZOL-3- YL]METHYL}BUTYL)BENZOYL]-β-ALANINE] showed a negative logarithm of the IC50 (pIC50) of 9.40. Compared with the last compound, the pIC50 is 0.30 log units lower.
In the case of `CCCC(c1ccc(C(=O)NCCC(=O)O)cc1)C(c1ccc(Cl)cc1)c1nn(C)c2ccc(C(F)(F)F)cc12` (single isomer, unassigned) [Example 9, N-[4-(1-{(4-CHLOROPHENYL)[1-METHYL-5-(TRIFLUOROMETHYL)-1H- INDAZOL-3-YL]METHYL}BUTYL)BENZOYL]-β-ALANINE], the pIC50 is 9.00. This pIC50 is 0.40 log units lower than that of the compound before.
Same read-out and setting: in the case of `CCCC(c1ccc(C(=O)NCCC(=O)O)cc1)C(c1ccc(Cl)cc1)c1nn(C)c2c(F)cc(F)cc12` (single isomer, unassigned) [Example 10, N-[4-(1-{(4-CHLOROPHENYL)[1-METHYL-5,7-DIFLUORO-1H- INDAZOL-3-YL]METHYL}BUTYL)BENZOYL]-β-ALANINE] it was 8.40; in that of `CCCC(c1ccc(C(=O)NCCC(=O)O)cc1)C(c1ccc(Cl)cc1)c1nn(C)c2c(C)cc(Cl)cc12` (single isomer, unassigned) [Example 11, N-[4-(1-{(4-CHLOROPHENYL)[1,7-DIMETHYL-5-CHLORO-1H- INDAZOL-3-YL]METHYL}BUTYL)BENZOYL]-β-ALANINE], 9.15; in that of `CCCC(c1ccc(C(=O)NCCC(=O)O)cc1)C(c1ccc(Cl)cc1)c1nn(C)c2c(Cl)cc(Cl)cc12` (single isomer, unassigned) [Example 12, N-[4-(1-{(4-CHLOROPHENYL)[1-METHYL-5,7-DICHLORO-1H-INDAZOL-3- YL]METHYL}BUTYL)BENZOYL]-β-ALANINE], 9.05.
For `CCCC(c1ccc(C(=O)NCCC(=O)O)cc1)C(c1ccc(Cl)cc1)c1c2cc(C(F)(F)F)ccc2nn1C` (single isomer, unassigned) [Example 13, N-[4-(1-{(4-CHLOROPHENYL)[2-METHYL-5- (TRIFLUOROMETHYL)-2H-INDAZOL-3- YL]METHYL}BUTYL)BENZOYL]-β-ALANINE], the pIC50 is 8.48. This pIC50 lies 0.57 log units lower than the previous one.
`CCCC(c1ccc(C(=O)NCCC(=O)O)cc1)C(c1ccc(Cl)cc1)c1c2cc(C(F)(F)F)cc(Cl)c2nn1CC(F)(F)F` (single isomer, unassigned) [Example 17, N-[4-(1-{(4-CHLOROPHENYL)[7-CHLORO-2-(2,2,2- TRIFLUOROETHYL)-5-(TRIFLUOROMETHYL)-2H-INDAZOL-3- YL]METHYL}BUTYL)BENZOYL]-β-ALANINE] had a pIC50 of 8.41. The pIC50 values of the last two compounds are within 0.2 log units of each other.
The same measure, in the same setting: in the case of `CCCC(c1ccc(C(=O)NCCC(=O)O)cc1)C(c1ccc(Cl)cc1)c1c2cc(Cl)cc(Cl)c2nn1C` (single isomer, unassigned) [Example 19, N-[4-(1-{(4-CHLOROPHENYL)[2-METHYL-5,7-DICHLORO-2H-INDAZOL-3- YL]METHYL}BUTYL)BENZOYL]-β-ALANINE] it was 8.70.
On to `CCCC(c1ccc(C(=O)NCCC(=O)O)cc1)C(c1ccc(Cl)cc1)c1n[nH]c2c(F)cc(-c3ccc(C)cc3)cc12` (single isomer, unassigned) [Example 21, N-[4-(1-{(4-Chlorophenyl)[7-Fluoro-5-(4-Methylphenyl)-1H-Indazol-3-Yl]Methyl}Butyl)Benzoyl]-β-Alanine], for which the “relative potency” value was “the more potent glucagon receptor antagonist” and the pIC50 was 8.59.
The like results for `CCCC(c1ccc(C(=O)NCCC(=O)O)cc1)C(c1ccc(Cl)cc1)c1n[nH]c2c(F)cc(C#N)cc12` (single isomer, unassigned) [Example 36, N-(4-{1-[(4-Chlorophenyl)(5-Cyano-7-Fluoro-1H-Indazol-3-Yl)Methyl]Butyl}Benzoyl)-β-Alanine] were, in that order, “the more potent glucagon receptor antagonist” and 8.37.
Take `CCC[C@H](c1ccc(C(=O)NCCC(=O)O)cc1)[C@H](c1ccc(Cl)cc1)c1n[nH]c2c(F)cc(C)cc12` (single isomer, unassigned) [Example 37]: the negative logarithm of the IC50 (pIC50) is 9.10.
